# Laboratory results published in US20220202783A1, “Use Of ADAM9 Inhibitor As Immunomodulator” (China Medical University, priority 2019, published 2022).
# Experiments:
# Bm7 lung cancer cells [1] = experiment: migration inhibition assay; type: cell-based; conditions: 25 μM, control Bm7 lung cancer cells (shGFP)
# Description: To further evaluate the specificity of the compound SW1 and the compound SW2, control Bm7 lung cancer cells (treated with shGFP) and ADAM9 knockout (KO) Bm7 lung cancer cells (treated with shADAM9) were treated with 25 μM of the compound SW1 or the compound SW2, respectively, and then performed a migration inhibition assay.
# [2] = tested on: lung cancer cells (Bm7brmx2); experiment: cytotoxicity assay in Bm7brmx2 cells; type: cell-based; set-up: key to effect of inhibiting tumor cell growth: “+” represents that the compound has the effect of inhibiting tumor cell growth
# Procedure, shortened: (§1)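 Cells are treated with each Formula (I) compound, viability loss is measured, and the IC50 is derived.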
# [3] = tested on: CDCP1 in Bm7 lung cancer cells; experiment: Western blot of ADAM9 and CDCP1 expression in Bm7 cells; type: cell-based; conditions: anchorage-free culture
# Description: (§2) Please refer to FIG. 1A, FIG. 1B and Table 2, which show the analysis results of the compound of Formula (I) inhibiting ADAM9 activity. In FIG. 1A, Bm7 lung cancer cells were treated with the derivatives of the compound 6X-0310, and then cultured under anchorage-free culture condition. The expressions of ADAM9 and CDCP1 in Bm7 lung cancer cells were detected by Western blot, in which EF1α is an internal control, and mock represents Bm7 lung cancer cells without treatment. […] In the experiment, the compounds of Formula (I) of Example 1 to Example 32 were further performed cytotoxicity assay to measure the IC50 value of the compounds of Formula (I) of the present disclosure in lung cancer cell lines.
# PE10 WBC = experiment: cytotoxicity assay in PE10 WBC; type: cell-based; set-up: key to effect of inhibiting tumor cell growth: “+” represents that the compound has the effect of inhibiting tumor cell growth
# Su86-86-GFP-Luc = experiment: cytotoxicity on pancreatic cancer cells, Su86-86-GFP-Luc; type: cell-based; conditions: Pancreatic cancer cell
# Description: (§3) In addition, the IC50 values (unit is μM) of the compound SW1 and the compound SW2 on pancreatic cancer cells were measured in the experiment.
# Bm7 lung cancer cells [4] = experiment: cytotoxicity assay, FIG. 1B and Table 2 summary; type: cell-based
# Description: as §2
# Panc-1 = experiment: cytotoxicity on pancreatic cancer cells, Panc-1; type: cell-based; conditions: Homo sapiens
# Description: as §3
# recombinant human ADAM9 = target: T1, recombinant human ADAM9 (Homo sapiens, UniProt Q13443); experiment: ADAM9 enzymatic activity ELISA with fluorescent peptide substrate; type: biochemical; conditions: different concentrations
# T1 construct: purchased R&D system
# Description: To measure the efficacy of the compound of Formula (I) in suppression of ADAM9 enzymatic activity, an ELISA system was established using recombinant human ADAM9 and a fluorescent peptide substrate (R&D system) in the experiment. Broad-spectrum MMP inhibitor-BB-94 was included as a positive control. The compounds of Formula (I) used in this experiment were the compound SW1 and the compound SW2.
# [5] = tested on: breast cancer brain metastatic cell line-MDA-231 brm; experiment: anoikis in anchorage-free culture, MDA-231brm; type: cell-based; conditions: read-out: IC50 value for anoikis (anchorage-free induced apoptosis)
# Description: (§4) To ensure the compound SW1 and the compound SW2 in blocking anoikis-resistance of cancer cells, the IC50 value (unit is μM) of the compound SW1 and the compound SW2 for anoikis (anchorage-free induced apoptosis) in lung cancer brain metastatic cell line-Bm7brmx2, breast cancer brain metastatic cell line-MDA-231 brm and leukocytes in anchorage-free culture conditions were determined.
# HPAC-GFP-Luc = experiment: cytotoxicity on pancreatic cancer cells, HPAC-GFP-Luc; type: cell-based; conditions: Pancreatic cancer cell
# Description: as §3
# [6] = tested on: lung cancer cells (Bm7brmx2-2nd); experiment: cytotoxicity assay in Bm7brmx2-2nd cells; type: cell-based; set-up: key to effect of inhibiting tumor cell growth: “+” represents that the compound has the effect of inhibiting tumor cell growth
# Procedure, shortened: as §1
# TC1-WT lung cancer cells [7] = experiment: colony-forming assay, TC1; type: cell-based; conditions: 10 μM
# Description: To further test the planting efficiency of tumor cells treated with the compound SW1 and the compound SW2, in the experiment, control Bm7 lung cancer cells (treated with shGFP) and ADAM9 KO Bm7 lung cancer cells (treated with shADAM9) were treated with 20 μM of the compound SW1 or the compound SW2 respectively, and TC1-wild-type (WT) lung cancer cells and TC1-ADAM9 KO lung cancer cells were treated with 10 μM of the compound SW1 or the compound SW2 respectively. Then colony-forming assay was used to confirm the planting efficiency of each test group. Please refer to FIGS. 2D and 2E, wherein mock represents the tumor cell lines without treatment of the compound SW1 or the compound SW2. Representative images of colony-forming assay are shown at the bottom, and data are means±SD of 6 separate wells.
# [8] = tested on: kidney cancer cells (293); experiment: cytotoxicity assay in 293 cells; type: cell-based; set-up: key to effect of inhibiting tumor cell growth: “+” represents that the compound has the effect of inhibiting tumor cell growth; conditions: Homo sapiens, HEK293
# [9] = cytotoxicity assay in 293 cells; type: cell-based; set-up: key to effect of inhibiting tumor cell growth: “+” represents that the compound has the effect of inhibiting tumor cell growth; conditions: 293
# Pan18-GFP-Luc = experiment: cytotoxicity on pancreatic cancer cells, Pan18-GFP-Luc; type: cell-based; conditions: Pancreatic cancer cell
# Description: as §3
# [10] = tested on: lung cancer cells (Bm7brmx2-1st); experiment: cytotoxicity assay in Bm7brmx2-1st cells; type: cell-based; set-up: key to effect of inhibiting tumor cell growth: “+” represents that the compound has the effect of inhibiting tumor cell growth
# Procedure, shortened: as §1
# lung cancer cells (TC1) = experiment: cytotoxicity assay in TC1 cells; type: cell-based; set-up: key to effect of inhibiting tumor cell growth: “+” represents that the compound has the effect of inhibiting tumor cell growth; conditions: for IC50: TC-1
# Procedure, shortened: as §1
# leukocytes = experiment: anoikis in anchorage-free culture, leukocytes; type: cell-based; conditions: Leukocyte, read-out: IC50 value for anoikis (anchorage-free induced apoptosis)
# Description: as §4
# HNOF = experiment: cytotoxicity assay in HNOF cells; type: cell-based; set-up: key to effect of inhibiting tumor cell growth: “+” represents that the compound has the effect of inhibiting tumor cell growth; conditions: HNOF
# [11] = cytotoxicity assay in HNOF cells; type: cell-based; set-up: key to effect of inhibiting tumor cell growth: “+” represents that the compound has the effect of inhibiting tumor cell growth; conditions: human, HNOF cells
# TC1-WT lung cancer cells [12] = experiment: Annexin V and PI staining for cell apoptosis; type: cell-based; conditions: 24 hours, compared with TC1-ADAM9 KO lung cancer cells
# Description: In the experiment, TC1-WT lung cancer cells and TC1-ADAM9 KO lung cancer cells were further treated with the compound SW1 or the compound SW2 for 24 hours, and then stained with Annexin V and PI to detect cell apoptosis. Please refer to FIG. 2F, where the percentage of Annexin V+ cells (apoptotic cells) is the statistical result from three independent experiments, with mean±SD.
# T1 sequence (Q13443 29-819): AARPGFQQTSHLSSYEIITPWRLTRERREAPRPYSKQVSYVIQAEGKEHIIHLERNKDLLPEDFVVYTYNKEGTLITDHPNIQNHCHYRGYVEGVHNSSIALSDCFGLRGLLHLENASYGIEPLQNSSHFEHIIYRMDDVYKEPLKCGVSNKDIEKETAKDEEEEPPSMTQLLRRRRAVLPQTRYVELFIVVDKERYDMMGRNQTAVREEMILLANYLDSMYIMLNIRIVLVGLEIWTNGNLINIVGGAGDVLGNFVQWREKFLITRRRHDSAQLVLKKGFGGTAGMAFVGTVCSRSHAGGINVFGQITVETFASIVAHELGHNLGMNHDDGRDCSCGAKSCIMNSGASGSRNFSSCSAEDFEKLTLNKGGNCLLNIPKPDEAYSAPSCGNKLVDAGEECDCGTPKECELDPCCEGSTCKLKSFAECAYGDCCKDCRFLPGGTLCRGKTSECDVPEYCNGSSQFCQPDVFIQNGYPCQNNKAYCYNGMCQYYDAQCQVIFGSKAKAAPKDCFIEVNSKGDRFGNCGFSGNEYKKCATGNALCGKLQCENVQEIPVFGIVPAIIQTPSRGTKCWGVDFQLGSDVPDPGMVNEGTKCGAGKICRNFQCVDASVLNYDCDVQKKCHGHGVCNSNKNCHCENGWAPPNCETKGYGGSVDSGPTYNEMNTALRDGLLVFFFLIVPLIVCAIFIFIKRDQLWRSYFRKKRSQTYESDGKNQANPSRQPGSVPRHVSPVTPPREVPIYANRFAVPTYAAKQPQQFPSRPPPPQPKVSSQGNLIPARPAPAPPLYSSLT
Structure (SMILES),migration ability (Bm7 lung cancer cells [1]),IC50 [2],effect of inhibiting tumor cell growth [2],expression of CDCP1 [3],IC50 (PE10 WBC),effect of inhibiting tumor cell growth (PE10 WBC),IC50 (Su86-86-GFP-Luc),tumor cell cytotoxicity compared with the core structure compound 6X-0310 (Bm7 lung cancer cells [4]),IC50 (Panc-1),inhibition of ADAM9 activity (recombinant human ADAM9),IC50 [5],IC50 (HPAC-GFP-Luc),IC50 [6],effect of inhibiting tumor cell growth [6],"planting efficiency, colony-forming assay (TC1-WT lung cancer cells [7])",IC50 [8],effect of inhibiting tumor cell growth [9],IC50 (Pan18-GFP-Luc),IC50 [10],effect of inhibiting tumor cell growth [10],other results
O=C(Nc1nc(CCN2C(=O)c3ccccc3C2=O)cs1)c1cc2ccccc2s1 [SW2],significantly reduce the migration ability,52.7 µM,+,reduce the expression of CDCP1,76.5 µM,+,66.8 µM,stronger tumor cell cytotoxicity,34.2 µM,decrease ADAM9 activity to a similar extent in a dose-dependent manner,7.5 µM,29.3 µM,45.1 µM,+,greatly reduce the planting efficiency,15 µM,+,112 µM,44.3 µM,+,effect of inhibiting tumor cell growth (lung cancer cells (TC1)): +; IC50 (lung cancer cells (TC1)): 64.2 µM; IC50 (leukocytes): 76 µM; effect of inhibiting tumor cell growth (HNOF): +; IC50 [11]: 61.9 µM; cell apoptosis (Annexin V+ cells) (TC1-WT lung cancer cells [12]): induce cell apoptosis
O=C1c2ccccc2C(=O)N1CCc1csc(Nc2nc(CCN3C(=O)c4ccccc4C3=O)cs2)n1 [SW1],significantly reduce the migration ability,71.6 µM,+,reduce the expression of CDCP1,14500 µM,+,59.2 µM,stronger tumor cell cytotoxicity,424 µM,decrease ADAM9 activity to a similar extent in a dose-dependent manner,4.5 µM,126 µM,43.5 µM,+,greatly reduce the planting efficiency,81.3 µM,+,0.3 µM,40.4 µM,+,effect of inhibiting tumor cell growth (lung cancer cells (TC1)): +; IC50 (lung cancer cells (TC1)): 80.4 µM; IC50 (leukocytes): > 200 µM; effect of inhibiting tumor cell growth (HNOF): +; IC50 [11]: 97.8 µM; cell apoptosis (Annexin V+ cells) (TC1-WT lung cancer cells [12]): induce cell apoptosis
